The values below come from patent US20190225650A1, “PEPTIDOMIMETIC MACROCYCLES AND USE THEREOF IN REGULATING HIF1ALPHA” (AILERON THERAPEUTICS, INC., priority 2013, published 2019).

SMILES strings stand for the structures. Bridge positions count the residues as written; N and C are the ends. Square brackets hold non-standard residues; d marks the D form. Peptide text beside a SMILES is read from it. R8 = C=CCCCCCC[C@@](C)(N)C(=O)O; S5 = C=CCCC[C@](C)(N)C(=O)O; Nle = CCCC[C@H](N)C(=O)O

For assay [1], the system named is HRE-bla ME-180 cells. Kind of assay: Reporter gene assay (HRE-bla ME-180 HIF reporter, GeneBLAzer). To be noted: for EC50: 24 hour normoxia. The assay is classed as cell-based, human. The procedure, abridged:
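A FRET β-lactamase readout of HIF transcription was used. After compound treatment in 0.3% DMSO/media under normoxic conditions, 20 μl of 6× LiveBLAzer-FRET B/G (CCF4-AM) substrate was added. Plates sat 3 hr at room temperature in the dark and were read at 409 Ex/460Em and 409Ex/530Em on a Synergy 2. Inhibition was compared against DMSO vehicle controls, with chetomin as positive control.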

For assay [2], the target named is T1, flag-tagged HIF1α (AA 786-826) / His6-tagged p300 (AA 323-423) complex (Homo sapiens, UniProt Q09472).
T1 construct: His6-tagged p300 (AA 323-423); made in house; host or cells: E. coli (pETDuet vector)
Put plainly: HIF1α p300 displacement assay (TR FRET, +CHAPS). The assay is classed as binding. To be noted: read-out: IC50 (nM) (HIF1α_p300 Displacement + CHAPS). Put shortly: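 In this TR-FRET displacement format, peptides compete HIF1α C-terminal transactivation domain off p300-CH. They were preincubated 1 h at room temperature with 300 nM complex in HEPES pH 7.4/NaCl buffer with 7.5 mM CHAPS and 1 mM DTT. Anti-His-D2 (4 nM) and anti-Flag-K (0.5 μM) followed for 2 h, and a one-site fit of the fluorescence ratio gave IC50.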
(In general: Time-resolved FRET reads energy transfer from a long-lived donor to a nearby acceptor.)

In assay [3] the test system is HRE-bla ME-180 cells. Kind of assay: Cell proliferation assay (viability, MTT, 1% FBS). The assay is classed as cell-based, human. The procedure, abridged:
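Viable cell number was measured with the CellTiter 96 (MTT) kit after compounds were applied for a 16 h normoxic (21% O2) pretreatment, followed by further normoxic or hypoxic (1% O2) culture. Cells: 2×10^4 ME-180 per well, Opti-MEM + 1% FBS, 0.5% DMSO vehicle.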

As usually defined, the EC50 is the concentration needed to bring the measured effect to its halfway point. Broadly, the IC50 is the concentration that gives 50% inhibition. In the case of `CC[C@H](C)[C@H](NC(=O)[C@H](Cc1ccccc1)NC(C)=O)C(=O)N[C@@H](CC(=O)O)C(=O)N[C@@H](CCC(=O)O)C(=O)N[C@@H](CCC(N)=O)C(=O)N[C@H](C(=O)N[C@@H](CC(C)C)C(=O)N[C@@H](CCSC)C(=O)N[C@@]1(C)CCCC=CCCC[C@@](C)(C(=O)N[C@@H](CCSC)C(=O)N[C@@H](C)C(=O)N[C@@H](CC(C)C)C(N)=O)NC(=O)[C@H]([C@@H](C)CC)NC(=O)[C@H](C(C)C)NC(=O)[C@H](CC(C)C)NC1=O)C(C)C` [SP-234] (Ac-FIDEQVLM[S5]LVI[S5]MAL-NH2; staple 9-13), in the assay with HRE-bla ME-180 cells [1], the “18 h Avg % max inhibition at top conc (HIF Rptr-24 hrs normoxia) (μM)” value (shortened to “18 h Avg % max inhibition at top conc”) is on record as “+++ (≤25 but <50: +++)” and the EC50 was above 30 µM. The IC50 in assay [2] fell in the range of 400 to 700 nM. Also, the “Viability 1% FBS AVG (MTT V3-24 hr Normoxia) (μM)” value (from here on “Viability 1% FBS AVG”) with HRE-bla ME-180 cells [3] is listed as “++++ (≥30: ++++)”.

On to `CCCC[C@@H]1NC(=O)[C@H](CC(C)C)NC(=O)[C@H](C(C)C)NC(=O)[C@@](C)(NC(=O)[C@H](CCC(=O)O)NC(=O)[C@H](CC(=O)O)NC(=O)[C@@H](NC(=O)[C@H](Cc2ccccc2)NC(C)=O)[C@@H](C)CC)CCCC=CCCCC2(CCCC=CCCC[C@](C)(C(=O)N[C@@H](CCC(N)=O)C(=O)N[C@@H](C)C(=O)N[C@@H](CC(C)C)C(N)=O)NC(=O)[C@H]([C@@H](C)CC)NC(=O)[C@H](C(C)C)NC(=O)[C@H](CC(C)C)NC2=O)NC1=O` (some centres unmarked) [SP-212], for which, in the assay on HRE-bla ME-180 cells [1], the “18 h Avg % max inhibition at top conc” value is on record as “++++ (≥50: ++++)” and the 50% effective concentration (EC50) was 5 to 15 µM. The IC50 in assay [2] was 200 to 400 nM. Moreover, the “Viability 1% FBS AVG” value with HRE-bla ME-180 cells [3] was “++ (≤5 but <15: ++)”.

For the molecule `CC[C@H](C)[C@H](NC(=O)[C@H](Cc1ccccc1)NC(C)=O)C(=O)N[C@@H](CC(=O)O)C(=O)N[C@@H](CCC(=O)O)C(=O)N[C@@]1(C)CCCC=CCCC[C@@](C)(C(=O)N[C@@H](CC(C)C)C(=O)N[C@H](C(=O)N[C@H](C(=O)N[C@@H](CCC(=O)O)C(=O)N[C@@H](CCSC)C(=O)N[C@@H](C)C(=O)N[C@@H](C)C(N)=O)[C@@H](C)CC)C(C)C)NC(=O)[C@H](CCSC)NC(=O)[C@H](CC(C)C)NC(=O)[C@H](C(C)C)NC1=O` [SP-116] (Ac-FIDE[S5]VLM[S5]LVIEMAA-NH2; staple 5-9), in the assay with HRE-bla ME-180 cells [1], the “18 h Avg % max inhibition at top conc” value is recorded as “+++ (≤25 but <50: +++)” and the EC50 is above 30 µM. In addition, in assay [2], the IC50 is above 700 nM. The “Viability 1% FBS AVG” value in the assay with HRE-bla ME-180 cells [3] is “++++ (≥30: ++++)”.

For the molecule `CCCC[C@H](NC(=O)[C@]1(C)CCCC=CCCC[C@](C)(NC(=O)[C@H](CCSC)NC(=O)[C@H](CC(C)C)NC(=O)[C@@H](NC(=O)[C@H](CCC(=O)O)NC(=O)[C@H](CCC(=O)O)NC(=O)[C@H](CC(=O)O)NC(=O)[C@@H](NC(=O)[C@H](Cc2ccccc2)NC(C)=O)[C@@H](C)CC)C(C)C)C(=O)N[C@@H](CC(C)C)C(=O)N[C@@H](C(C)C)C(=O)N[C@@H]([C@@H](C)CC)C(=O)N1)C(=O)N[C@@H](C)C(=O)N[C@@H](CC(C)C)C(N)=O` [SP-225] (Ac-FIDEEVLM[S5]LVI[S5][Nle]AL-NH2; staple 9-13), in the assay on HRE-bla ME-180 cells [1], the “18 h Avg % max inhibition at top conc” value is reported as “+++ (≤25 but <50: +++)” and the EC50 is above 30 µM. The IC50 in assay [2] is above 700 nM. In addition, in the assay on HRE-bla ME-180 cells [3], the “Viability 1% FBS AVG” value was “++++ (≥30: ++++)”.

For `CCCC[C@H](NC(=O)[C@H](CCC(=O)O)NC(=O)[C@]1(C)CCCC=CCCCCCC[C@@](C)(NC(=O)[C@H](CCC(=O)O)NC(=O)[C@H](CC(=O)O)NC(=O)[C@@H](NC(=O)[C@H](CC(N)=O)NC(=O)[C@@H](NC(=O)[C@H](CCC(N)=O)NC(=O)[C@]2(C)CCCC=CCCC[C@](C)(NC(=O)[C@H](CC(C)C)NC(=O)[C@H](CCC(=O)O)NC(=O)[C@H](CCC(=O)O)NC(=O)[C@H](C)NC(=O)[C@H](CCC(N)=O)NC(=O)[C@H](CC(C)C)NC(=O)[C@H](CC(C)C)NC(C)=O)C(=O)N[C@@H](CCCNC(=N)N)C(=O)N[C@@H](C)C(=O)N[C@@H](CC(C)C)C(=O)N2)C(C)C)[C@@H](C)CC)C(=O)N[C@@H](C(C)C)C(=O)N[C@@H](CC(C)C)C(=O)N[C@@H](CCCC)C(=O)N[C@@H](CO)C(=O)N[C@@H](CC(C)C)C(=O)N[C@@H](C(C)C)C(=O)N1)C(N)=O` [SP-367] (Ac-LLQAEEL[S5]RAL[S5]QVNIDE[R8]VL[Nle]SLV[S5]E[Nle]-NH2; staple 8-12, 19-26), in the assay with HRE-bla ME-180 cells [1], the “18 h Avg % max inhibition at top conc” value is “++++ (≥50: ++++)” and the EC50 was at most 5 µM. Also, the IC50 in assay [2] was 400 to 700 nM. The “Viability 1% FBS AVG” value in the assay with HRE-bla ME-180 cells [3] is given as “++++ (≥30: ++++)”.

As for `CCCC[C@H](NC(=O)[C@H](Cc1ccccc1)NC(=O)[C@@H](NC(=O)[C@H](C)NC(=O)[C@H](CCC(N)=O)NC(=O)[C@H](CC(=O)O)NC(=O)[C@@H](NC(=O)[C@H](Cc1ccccc1)NC(C)=O)[C@@H](C)CC)C(C)C)C(=O)N[C@@]1(C)CCCC=CCCC[C@@](C)(C(=O)N[C@@H](CCCC)C(=O)N[C@@H](C)C(=O)N[C@@H](CC(C)C)C(=O)N[C@@H](CC(C)C)C(N)=O)NC(=O)[C@H]([C@@H](C)CC)NC(=O)[C@H](C(C)C)NC(=O)[C@H](CC(N)=O)NC1=O` [SP-251] (Ac-FIDQAVF[Nle][S5]NVI[S5][Nle]ALL-NH2; staple 9-13), in the assay with HRE-bla ME-180 cells [1], the “18 h Avg % max inhibition at top conc” value was “++++ (≥50: ++++)” and the EC50 was at most 5 µM. Besides, the IC50 in assay [2] was above 700 nM. Also, in the assay on HRE-bla ME-180 cells [3], the “Viability 1% FBS AVG” value is listed as “+ (<5: +)”.

Turning to `CCCC[C@H](NC(=O)[C@H](CC(C)C)NC(=O)[C@@H](NC(=O)[C@H](CCC(=O)O)NC(=O)[C@H](CCC(=O)O)NC(=O)[C@H](CC(=O)O)NC(=O)[C@@H](NC(=O)[C@H](CC(N)=O)NC(=O)[C@@H](NC(=O)[C@H](CCC(N)=O)NC(=O)[C@]1(C)CCCC=CCCCCCC[C@@](C)(NC(=O)CNC(=O)[C@H](CCC(N)=O)NC(=O)[C@H](CC(C)C)NC(=O)[C@H](CC(C)C)NC(C)=O)C(=O)N[C@@H](CCC(=O)O)C(=O)N[C@@H](CC(C)C)C(=O)N[C@@H](CC(C)C)C(=O)N[C@@H](CCCNC(=N)N)C(=O)N[C@@H](C)C(=O)N[C@@H](CC(C)C)C(=O)N1)C(C)C)[C@@H](C)CC)C(C)C)C(=O)N[C@@]1(C)CCCC=CCCC[C@@](C)(C(=O)N[C@@H](CCCC)C(=O)NCC(N)=O)NC(=O)[C@H]([C@@H](C)CC)NC(=O)[C@H](C(C)C)NC(=O)[C@H](CC(C)C)NC1=O` [SP-342] (Ac-LLQG[R8]ELLRAL[S5]QVNIDEEVL[Nle][S5]LVI[S5][Nle]G-NH2; staple 5-12, 23-27), in the assay with HRE-bla ME-180 cells [1], the “18 h Avg % max inhibition at top conc” value was “+++ (≤25 but <50: +++)” and the concentration for a half-maximal effect (EC50) is above 30 µM. The IC50 in assay [2] was above 700 nM. Also, in the assay with HRE-bla ME-180 cells [3], the “Viability 1% FBS AVG” value is recorded as “++++ (≥30: ++++)”.

As for `CCCC[C@@H]1NC(=O)[C@H](CC(C)C)NC(=O)[C@](C)(NC(=O)[C@H](CCC(=O)O)NC(=O)[C@H](CCC(=O)O)NC(=O)[C@H](CC(=O)O)NC(=O)[C@@H](NC(=O)[C@H](Cc2ccccc2)NC(C)=O)[C@@H](C)CC)CCCCCCC=CCCC[C@@](C)(C(=O)N[C@@H](CCCC)C(=O)N[C@@H](C)C(=O)N[C@@H](CC(C)C)C(=O)N[C@@H](CC(=O)O)C(=O)N[C@@H](CCCNC(=N)N)C(=O)N[C@H](C(N)=O)[C@@H](C)CC)NC(=O)[C@H]([C@@H](C)CC)NC(=O)[C@H](C(C)C)NC(=O)[C@H](CC(C)C)NC(=O)[C@H](CO)NC1=O` [SP-200] (Ac-FIDEE[R8]L[Nle]SLVI[S5][Nle]ALDRI-NH2; staple 6-13), in the assay on HRE-bla ME-180 cells [1], the “18 h Avg % max inhibition at top conc” value is recorded as “++++ (≥50: ++++)” and the EC50 is above 30 µM. The IC50 in assay [2] is at most 200 nM. Besides, the “Viability 1% FBS AVG” value in the assay on HRE-bla ME-180 cells [3] is reported as “++++ (≥30: ++++)”.
